Patent US20240408167A1, “COMPOSITION FOR TREATING OCULAR DISEASES CONTAINING PEPTIDE” (Encuragen Inc., priority 2023, published 2024)

Columns and labels:
Type in all cases: in vivo
[1] = test system: mouse experimental dry eye (EDE) model; test: Tear volume, phenol red thread test, EDE mouse model
Protocol: (§1) To confirm the pharmacological effect and appropriate dosage, a pilot study was first conducted with the mice. In addition, a rabbit DED (Dry Eye Disease) model with a large exposed facial area was evaluated in comparison with a mouse model. In the mouse experimental dry eye (EDE) model, scopolamine hydrobromide (Sigma-Aldrich. St. Louis, MO, USA) was subcutaneously injected three times a day (9 a.m., 1:30 p.m., 6 p.m.) in a room exposed to ventilation with an ambient humidity of less than 40% at 25±2° C. to induce DED.
(§2) The mice were randomly divided into five groups: (1) EDE (experimental dry eye) control mice without eye drops administration, (2) EDE mice treated with a vehicle (phosphate-buffered saline), (3) EDE mice treated with 0.001% (PEG)-BHD1028 (4) EDE mice treated with 0.01% (PEG)-BHD1028, and (5) EDE mice treated with 0.1% (PEG)-BHD1028. All the treatment groups received 2 μL of eye drops three times a day.
(§3) The tear secretion was measured for 20 seconds by contacting a cotton thread containing phenol red (Zone-Quick™; Oasis Medical, Inc., Glendora, CA, USA) to the conjunctival sac on the lateral canthus of the mouse eye. After measuring the length using a Nikon SMZ1500 microscope, the length substituted to the prescribed formula, and the value was converted to volume. The tear production of the rabbits was measured by a modified Schirmer tear test using Whatman 41 filter paper strips (Tianjin Jingming New Technology Development Co., Ltd., Tianjin, China) on Day 0, Day 5, and Day 10. Eye examination of the rabbits was performed under anesthesia. The anesthesia was performed under sedation by performing intramuscular injection of xylazine (3 mg/kg, Rompun®; Bayer Korea, Korea) and intramuscular injection of 10 mg/kgtiletamine/zolazepam (Zoletil®, Virbac Laboratories, Carros, France). After adding 1 drop of proparacaine HCl 0.5% (Alcaine®, Alcon Korea Ltd., Seoul, Korea), excess tears and eye drops were removed with Weck-cel® […]. The wet length (mm) of the paper strip was read after 5 minutes.
The tear volume of the mice was measured using the Phenol Red Thread (PRT) test on Day 5 and Day 10 after the treatment.

[2] = test system: mouse experimental dry eye (EDE) model; test: Tear film break-up time (TBUT), EDE mouse model
Protocol: as §1, §2
TBUT is the time elapsed between the last blink and the first appearance of fluorescein decomposition, and it is an indicator of tear film stability. TBUT was evaluated by administering 1 μL of 1% fluorescein sodium dye to the lower conjunctival sac of the mice and visualizing the tear film using cobalt blue light of a slit-lamp biomicroscope. The measurement was repeated three times to obtain an average value.
Tear film instability is an important pathological characteristic of DED and the most common indicator of tear quality. […] The improvement in the 0.01% (PEG)-BHD1028 group was greater than that in the 0.001% (PEG)-BHD1028 group on Day 10 (p<0.05), but there was no difference between 0.01% and 0.1%.

[3] = test system: rabbit DED model; test: Schirmer tear test (STT), rabbit DED model
Protocol: The rabbit DED model was induced by locally administrating 0.1% benzalkoniumchloride (BAC) drops (Sigma, St. Louis, MO, USA) twice a day (8 a.m. and 4 p.m.). Before the BAC treatment, the control group (baseline, naive) underwent standard dry eye clinical tests such as the Schirmer tear test (STT), TBUT, and corneal staining score (CSS) test. After the BAC treatment, the induction of dry eye syndrome was confirmed, and the test substance was administered for 10 days while maintaining the induction of dry eye syndrome. […] The test substance was locally applied bis in die (BID) to both eyes.
as §3

[4] = test system: CD4+IFN-γ+T cell; test: CD4+IFN-γ+T cell density by flow cytometry, EDE mouse model
Protocol: The cornea, conjunctiva, and each tissue required for analysis were excised with scissors, incised, and shaken with 0.5 mg/mL collagenase type D at 37° C. for 1 hour. After pulverizing the tissue, the resulting mixture was passed through a cell strainer, centrifuged, and resuspended in phosphate-buffered saline containing 1% bovine serum albumin.
In DED, corneal barrier destruction and epithelial cell loss are accompanied by bone marrow and T cell infiltration. Activated T lymphocytes are the primary producers of Th-1 cytokines and interferon (IFN)-γ, which promote cell death at the ocular surface. To evaluate the anti-inflammatory effect of (PEG)-BHD1028 in the EDE mouse model, immune cells that play the role of inflammatory cell surface markers were quantified by flow cytometry with one animal per group.

[5] = test system: apoptotic cells in cornea and conjunctiva; test: Apoptotic cells by TUNEL, rabbit model; details: for cell death rate in the conjunctiva: Day 10; for percentage of apoptotic cells per unit area, cornea: after 10 days
Protocol: The eyes and appendages from each group were excised, fixed in the modified Davidson's solution, and embedded in paraffin, and the tissue sections were TUNEL-stained. In each section, the degree of apoptosis in the cornea and conjunctiva was measured using ZEN (Zeiss, Oberkochen, Germany) and Image J v1.51j8 (NIH, Bethesda, MD, USA) software programs.
The percentage of the apoptotic cells per unit area was evaluated after 10 days in the rabbit model. In the cornea, apoptotic cells were detected at a percentage of 35±6% in the normal control group and 74±2% in the vehicle group. In the 0.1%, 0.2%, and 0.4% (PEG)-BHD1028 treatment groups, the percentage was 40±12%, 39±3%, and 35±4%, respectively. […] In addition, the cell death rate in the conjunctiva was 7±5% in the normal control group and 56±4% in the vehicle group. The percentage in the 0.1%, 0.2% and 0.4% (PEG)-BHD1028 treatment groups was 35±4%, 26±3% and 19±4% on Day 10.

Substance: NH2-Tyr-Tyr-Phe-Ala-Tyr-His-Pro-Asn-Ile-Pro-Gly-Leu-Tyr-Tyr-Phe-COOH (H-YYFAYHPNIPGLYYF-OH; also: PEGylated, site not given here (mPEG), acetate salt) [(PEG)-BHD1028]
- Tear volume ([1]; 0.001% eye drops three times a day, Day 5): 0.024 ± 0.003 µL
- Tear volume ([1]; 0.001% eye drops three times a day, Day 10): 0.021 ± 0.002 µL
- Tear volume ([1]; 0.01% eye drops three times a day, Day 5): 0.026 ± 0.003 µL
- Tear volume ([1]; 0.01% eye drops three times a day, Day 10): 0.027 ± 0.003 µL
- Tear volume ([1]; 0.1% eye drops three times a day, Day 5): 0.028 ± 0.002 µL
- Tear volume ([1]; 0.1% eye drops three times a day, Day 10): 0.032 ± 0.004 µL
- TBUT ([2]; 0.001%, Day 5): 1.333 ± 0.081 s
- TBUT ([2]; 0.001%, Day 10): 1.359 ± 0.140 s
- TBUT ([2]; 0.01%, Day 5): 1.406 ± 0.082 s
- TBUT ([2]; 0.01%, Day 10): 1.530 ± 0.137 s
- TBUT ([2]; 0.1%, Day 5): 1.408 ± 0.095 s
- TBUT ([2]; 0.1%, Day 10): 1.483 ± 0.113 s
- STT-2 ([3]; rabbit DED, 0.1% BID, Day 5): 4.67 ± 0.65 mm
- STT-2 ([3]; rabbit DED, 0.1% BID, Day 10): 6.50 ± 0.87 mm
- STT-2 ([3]; rabbit DED, 0.2% BID, Day 5): 3.33 ± 0.51 mm
- STT-2 ([3]; rabbit DED, 0.2% BID, Day 10): 7.50 ± 0.99 mm
- STT-2 ([3]; rabbit DED, 0.4% BID, Day 5): 4.33 ± 0.45 mm
- STT-2 ([3]; rabbit DED, 0.4% BID, Day 10): 6.67 ± 1.02 mm
- STT-2 ([3]; rabbit, 0.1% group, Baseline (before BAC treatment)): 6.67 ± 0.96 mm
- STT-2 ([3]; rabbit, 0.1% group, Day 0 (EDE), before treatment): 3.00 ± 1.22 mm
- STT-2 ([3]; rabbit, 0.2% group, Baseline (before BAC treatment)): 8.50 ± 1.39 mm
- STT-2 ([3]; rabbit, 0.2% group, Day 0 (EDE), before treatment): 3.33 ± 1.28 mm
- STT-2 ([3]; rabbit, 0.4% group, Baseline (before BAC treatment)): 9.17 ± 1.23 mm
- STT-2 ([3]; rabbit, 0.4% group, Day 0 (EDE), before treatment): 3.33 ± 1.22 mm
- CD4+IFN-γ+T cell density ([4]; conjunctiva, 0.001%): 18.96%
- CD4+IFN-γ+T cell density ([4]; conjunctiva, 0.01%): 15.31%
- CD4+IFN-γ+T cell density ([4]; conjunctiva, 0.1%): 9.91%
- CD4+IFN-γ+T cell density ([4]; cornea, 0.001%): 18.62%
- CD4+IFN-γ+T cell density ([4]; cornea, 0.01%): 16.78%
- CD4+IFN-γ+T cell density ([4]; cornea, 0.1%): 11.66%
- CD4+IFN-γ+T cell density ([4]; lacrimal gland, 0.001%): 18.45%
- CD4+IFN-γ+T cell density ([4]; lacrimal gland, 0.01%): 14.60%
- CD4+IFN-γ+T cell density ([4]; lacrimal gland, 0.1%): 10.70%
- cell death rate in the conjunctiva ([5]; 0.1%): 35±4%
- percentage of apoptotic cells per unit area, cornea ([5]; 0.1%): 40±12%
- cell death rate in the conjunctiva ([5]; 0.2%): 26±3%
- percentage of apoptotic cells per unit area, cornea ([5]; 0.2%): 39±3%
- cell death rate in the conjunctiva ([5]; 0.4%): 19±4%
- percentage of apoptotic cells per unit area, cornea ([5]; 0.4%): 35±4%
